Entries after “also recorded” stand apart in the source; their conditions may differ.
Tests used:
Format in all cases: cell-based, murine
[1] = test system: hSSPN-EGFP myotubes (human sarcospan promoter reporter in C2C12); assay: hSSPN-EGFP reporter myotube assay (high-content imaging); settings: for hit call in an earlier assay: no details given; for hSSPN-EGFP reporter activity, counterscreen: doses between 3.9 nm to 1 μM, 48 hours (FIG. 10a)
[2] = test system: hSSPN-EGFP myotubes (human sarcospan promoter reporter in C2C12); assay: as above; settings: for hSSPN-EGFP RFU, Plate 1 / hSSPN-EGFP RFU, Plate 2: retest of screen hits at 5.5 μM; for hSSPN-EGFP RFU, Plate 1: Plate 1, n=24 per plate; for hSSPN-EGFP RFU, Plate 2: Plate 2, n=24 per plate; for fluorescence intensity over vehicle, primary screen hit call: primary screen of 3,200 molecules, 5.5 μM, 48 hours, n=1, hit cutoff 1.4-fold
Procedure: (§1) C2C12 immortalized murine myoblasts cultured in growth media consisting of DMEM (Gibco) with 20% Fetal Bovine Serum (Sigma-Aldrich) at 37° C. with 5% CO2 were transfected with the hSSPN-EGFP or hSSPN-Luciferase linearized plasmids using Lipofectamine 3000 Transfection Reagent (Thermo Fisher Scientific). Transfected cells were selected using 800 μg/ml of G418 (Sigma-Aldrich) for 4 weeks to generate stable cell lines expressing reporter protein under control of the human SSPN promoter.
hSSPN-EGFP myoblasts were seeded at 500 cells per well in 50 μl of growth media in 384-well black, clear bottom microplates (Greiner) using a Multidrop 384 (Thermo Fisher Scientific) and incubated for 3 days. Upon reaching confluency, the growth media was replaced with 50 μl of differentiation media consisting of DMEM with 2% horse serum (Sigma-Aldrich) using an EL406 combination washer dispenser (Biotek). At day 2 of differentiation, the media on the cells was aspirated, left with a residual volume of 10 μl, and replaced with 30 μl of fresh differentiation media. 0.5 μl of small molecule in DMSO or DMSO alone (for vehicle and positive control wells) was added to each well using a Biomek Fx (Beckman). To ensure proper mixing of the DMSO, 50 μl of additional differentiation media was added to all wells except the positive control treated wells, which instead received 50 μl of media containing insulin transferrin selenium (ITS, Gibco) to reach a final concentration of 1% ITS. The final concentration of drug in each treated well was 5.5 μM in 0.55% DMSO and 0.55% DMSO for vehicle and positive control treated wells. After 48 hours of incubation, the media was replaced with Fluorobrite DMEM (Gibco) and each plate was imaged using ImageXpress Micro Confocal High Content Imaging System (Molecular Devices). The fluorescent intensity of imaged cells was determined using MetaXpress Analysis software (Molecular Devices). Analysis setting were as follows: top hat (size: 12, filter shape: circle), adaptive threshold (source: top hat, minimum width: 10, maximum width: 800, intensity above local background: 500), filter mask (filter type: minimum area filter, minimum value: 500). […]

UTRN, utrophin = assay: UTRN gene expression by qPCR in C2C12 wild-type myotubes; settings: C2C12 myotubes, 48h, normalized to GAPDH, n=2 (FIG. 11a); felodipine 10 μM
Procedure: RNA from myotubes treated for 48 hours was extracted from cells using Trizol-based (Thermo Fisher Scientific) phase separation. RNA concentrations were determined using a NanoDrop 1000 (Thermo Fisher Scientific) and 750 ng of RNA in a 20 μl reaction was reverse transcribed using iScript cDNA synthesis (Bio-Rad) with the following cycling conditions: 25° C. for 5 minutes, 42° C. for 30 minutes, 85° C. for 5 minutes. For quantitative PCR, SsoFast EvaGreen Supermix (Bio-Rad), 400 nM of each optimized forward and reverse primer (for primer descriptions see Table 1), and cDNA corresponding to 37.5 ng RNA were used to amplify cDNA measured by Applied Biosystems 7300 (Thermo Fisher Scientific) with the following reaction conditions: 55° C. for 2 minutes, 95° C. for 2 minutes, 40 cycles of 95° C. for 10 seconds and 62° C. for 30 seconds, and dissociation stage. Each sample was run in triplicate. Data was analyzed using the ddCT method and normalized to reference gene, GAPDH or β-actin, with vehicle-treated samples serving as the calibrator (relative expression of vehicle control=1). C2C12 cells (American Type Culture Collection) were grown at 37° C. with 5% CO2 in growth media containing DMEM (Gibco) with 20% FBS (Sigma-Aldrich). Upon reaching confluency, the media was replaced with differentiation media containing DMEM with 2% horse serum (Sigma-Aldrich). […]

SSPN, sarcospan = assay: SSPN gene expression by qPCR in C2C12 wild-type myotubes; settings: 48h, normalized to GAPDH, n=2 (FIG. 11b), felodipine 10 μM
Procedure: RNA from myotubes treated for 48 hours was extracted from cells using Trizol-based (Thermo Fisher Scientific) phase separation. RNA concentrations were determined using a NanoDrop 1000 (Thermo Fisher Scientific) and 750 ng of RNA in a 20 μl reaction was reverse transcribed using iScript cDNA synthesis (Bio-Rad) with the following cycling conditions: 25° C. for 5 minutes, 42° C. for 30 minutes, 85° C. for 5 minutes. For quantitative PCR, SsoFast EvaGreen Supermix (Bio-Rad), 400 nM of each optimized forward and reverse primer (for primer descriptions see Table 1), and cDNA corresponding to 37.5 ng RNA were used to amplify cDNA measured by Applied Biosystems 7300 (Thermo Fisher Scientific) with the following reaction conditions: 55° C. for 2 minutes, 95° C. for 2 minutes, 40 cycles of 95° C. for 10 seconds and 62° C. for 30 seconds, and dissociation stage. Each sample was run in triplicate. Data was analyzed using the ddCT method and normalized to reference gene, GAPDH or β-actin, with vehicle-treated samples serving as the calibrator (relative expression of vehicle control=1). C2C12 cells (American Type Culture Collection) were grown at 37° C. with 5% CO2 in growth media containing DMEM (Gibco) with 20% FBS (Sigma-Aldrich). Upon reaching confluency, the media was replaced with differentiation media containing DMEM with 2% horse serum (Sigma-Aldrich). Conditionally immortalized H2K mdx myoblast cells with a nonsense mutation in exon 23 of dystrophin were a gift from Terrance Partridge, Ph.D. (Children's National Medical Center, Washington, D.C.). Cells were allowed to proliferate on 0.01% gelatin (Sigma-Aldrich) coated plates at 33° C. with 5% CO2 with growth media containing DMEM, 20% HI-FBS (Invitrogen), 2% L-glutamine (Sigma-Aldrich), 2% chicken embryo extract (Accurate Chemical), 1% penicillin-streptomycin (Sigma-Aldrich), and 20U/ml of fresh interferon gamma (Gibco). For differentiation, H2K mdx myoblasts were seeded on plates coated with 0.1 mg/ml matrigel (Corning) diluted in DMEM and grown in proliferation conditions. […]

[3] = test system: hSSPN-Luciferase reporter cells (human sarcospan promoter reporter in C2C12); assay: hSSPN-Luciferase reporter assay (Bright-Glo); settings: doses between 3.9 nm to 1 μM, 48 hours (FIG. 10b)
Procedure: as §1
hSSPN-Luciferase myoblasts were cultured as described above. After 48 hours of treatment, plates were allowed to equilibrate to room temperature before the media was aspirated using an EL406 combination washer dispenser at room temperature. Bright-Glo luciferase assay system reagent (Promega) and differentiation media were added to cells at a 1:2 dilution using a Multidrop 384. After a 3-minute incubation at room temperature, luminescence signal was quantified using an Envision plate reader (PerkinElmer). The relative luminescence units were analyzed to determine fold change of treated over vehicle treated cells.
Cells were treated for 48 hours beginning at day 2 of differentiation with DMSO (vehicle control, ATCC), felodipine (Sigma), nilvadipine (Sigma), alloxazine (Sigma), GW5074 (Sigma), methylthioadenosine (Santa Cruz Biotechnology), or ezutromid (Cayman Chemicals) diluted in cell type specific differentiation media at doses listed in the figures. For gene expression studies, each treatment was performed in duplicate. For protein studies, each treatment was performed with single or double replicates.

Q: How did the “hit call in an earlier assay” value [1] turn out when CC[n+]1c(C=CC=C2N(C)c3ccccc3C2(C)C)sc2ccccc21.[I-] [AC-93253, 2-[3-(1,3-Dihydro-1,3,3-trimethyl-2H-indol-2-ylidene)-1-propenyl]-3-ethyl-benzothiazolium iodide] was run?
A: The value was “among the hits”.

Q: CC(=O)OC1CN2CCC1CC2 (centres unmarked) [Aceclidine, 1-Azabicyclo[2.2.2]oct-3-yl acetate] was tested. Which “hSSPN-EGFP RFU, Plate 1” value [2] did it give?
A: The value was 1.1 RFU.

Q: And the “hSSPN-EGFP RFU, Plate 2” value [2]?
A: The value was 1.1 RFU.

Q: What does the source list for COC(=O)N=N/C=C1\C=[N+]([O-])c2ccccc2N1O [Carbodox, methyl N-[(E)-(1-hydroxy-4-oxidoquinoxalin-4-ium-2-ylidene)methyl]iminocarbamate]?
A: hSSPN-EGFP RFU, Plate 1 [2]: 1.1 RFU; hSSPN-EGFP RFU, Plate 2 [2]: 1.1 RFU

Q: CCS(=O)(=O)c1ccc2oc(-c3ccc4ccccc4c3)nc2c1 [ezutromid] was tested. Which “UTRN gene expression relative to vehicle” value (UTRN, utrophin) did it give?
A: The value was “did not significantly increase UTRN levels; also recorded: did not increase utrophin gene expression”.

Q: What about the “SSPN gene expression relative to vehicle” value (SSPN, sarcospan) of the same compound?
A: The value was “did not significantly increase SSPN gene expression; also recorded: did not significantly increase sarcospan levels”.

Q: With O=C1Nc2ccc(I)cc2/C1=C/c1cc(Br)c(O)c(Br)c1 [GW5074, (3Z)-3-[(3,5-dibromo-4-hydroxyphenyl)methylidene]-5-iodo-1H-indol-2-one] as the compound, how does the “hSSPN-Luciferase reporter activity, counterscreen” value (from here on “hSSPN-Luciferase reporter activity”) [3] read?
A: The value was “increased activity”.

Q: What about the “hSSPN-EGFP reporter activity, counterscreen” value (“hSSPN-EGFP reporter activity” for short) [1] of the same compound?
A: Its value is “increased activity”.

Q: And the “fluorescence intensity over vehicle, primary screen hit call” value (shortened to “fluorescence intensity over vehicle”) [2]?
A: The value was “hits”.

Q: What about the “hSSPN-EGFP RFU, Plate 1” value [2] of the same compound?
A: The value was 1.2 RFU.

Q: And the “hSSPN-EGFP RFU, Plate 2” value [2]?
A: The value was 1.2 RFU.

Q: Which “fluorescence intensity over vehicle” value [2] does the source give for C[C@]12CC[C@H]3[C@@H](CCC4=CC(=O)CC[C@@H]43)[C@@H]1CC[C@@H]2O [Nandrolone, (8R,9S,10R,13 S,14S,17S)-17-hydroxy-13-methyl-2,6,7,8,9,10,11,12,14,15,16,17-dodecahydro-1H-cyclopenta[a]phenanthren-3-one] here?
A: Its value is “hits”.

Q: And the “hSSPN-EGFP RFU, Plate 1” value [2]?
A: The value was 1.2 RFU.

Q: What about the “hSSPN-EGFP RFU, Plate 2” value [2] of the same compound?
A: Its value is 1.1 RFU.

Q: Which “hSSPN-EGFP RFU, Plate 1” value [2] does the source give for CCCCN1CCCC1CNC(=O)c1cc(C#N)c2ccccc2c1OC (centres unmarked) [Nafadotride, N-[(1-butylpyrrolidin-2-yl)methyl]-4-cyano-1-methoxynaphthalene-2-carboxamide] here?
A: The value was 1.1 RFU.

Q: What about the “hSSPN-EGFP RFU, Plate 2” value [2] of the same compound?
A: The value was 1.0 RFU.

Q: Which results are given for COC(=O)C1=C(C)NC(C)=C(C(=O)OC)C1c1ccccc1[N+](=O)[O-] [Nifedipine, dimethyl 2,6-dimethyl-4-(2-nitrophenyl)-1,4-dihydropyridine-3,5-dicarboxylate]?
A: fluorescence intensity over vehicle, primary screen hit call [2]: hits; hSSPN-EGFP RFU, Plate 1 [2]: 1.3 RFU; hSSPN-EGFP RFU, Plate 2 [2]: 1.0 RFU

Q: How did the “fluorescence intensity over vehicle” value [2] turn out when COC(=O)C1=C(C)NC(C)=C(C(=O)OC(C)C)C1c1cccc2nonc12 (centres unmarked) [Isradipine, 3-O-methyl 5-O-propan-2-yl 4-(2,1,3-benzoxadiazol-4-yl)-2,6-dimethyl-1,4-dihydropyridine-3,5-dicarboxylate] was run?
A: Its value is “hits”.

Q: And the “hSSPN-EGFP RFU, Plate 1” value [2]?
A: Its value is 1.5 RFU.

Q: And the “hSSPN-EGFP RFU, Plate 2” value [2]?
A: Its value is 1.4 RFU.

Q: With COC(=O)C1=C(C#N)NC(C)=C(C(=O)OC(C)C)C1c1cccc([N+](=O)[O-])c1 (centres unmarked) [Nilvadipine, 3-O-methyl 5-O-propan-2-yl 2-cyano-6-methyl-4-(3-nitrophenyl)-1,4-dihydropyridine-3,5-dicarboxylate] as the compound, how does the “hSSPN-Luciferase reporter activity” value [3] read?
A: Its value is “increased activity”.

Q: And the “hSSPN-EGFP reporter activity” value [1]?
A: Its value is “increased activity”.

Q: And the “fluorescence intensity over vehicle” value [2]?
A: Its value is “hits”.

Q: What about the “hSSPN-EGFP RFU, Plate 1” value [2] of the same compound?
A: The value was 1.6 RFU.

Q: And the “hSSPN-EGFP RFU, Plate 2” value [2]?
A: The value was 1.5 RFU.

Q: With CSC[C@H]1O[C@@H](n2cnc3c(N)ncnc32)[C@H](O)[C@@H]1O [methylthioadenosine, (2R,3R,4S,5S)-2-(6-aminopurin-9-yl)-5-(methylsulfanylmethyl)oxolane-3,4-diol] as the compound, how does the “hSSPN-Luciferase reporter activity” value [3] read?
A: The value was “increased activity”.

Q: What about the “hSSPN-EGFP reporter activity” value [1] of the same compound?
A: The value was “increased activity”.

Q: And the “hit call in an earlier assay” value [1]?
A: Its value is “among the hits”.

Q: How did the “hSSPN-EGFP RFU, Plate 1” value [2] turn out when Nc1nc(=O)c2ncn(COCCO)c2[nH]1 [Acyclovir, 2-amino-9-(2-hydroxyethoxymethyl)-3H-purin-6-one] was run?
A: Its value is 0.9 RFU.

Q: And the “hSSPN-EGFP RFU, Plate 2” value [2]?
A: The value was 1.0 RFU.

Q: With CC(C)NCC(O)c1ccc(O)c(O)c1 (centres unmarked) [Isoproterenol, 4-[1-hydroxy-2-(propan-2-ylamino)ethyl]benzene-1,2-diol] as the compound, how does the “fluorescence intensity over vehicle” value [2] read?
A: The value was “hits”.

Q: And the “hSSPN-EGFP RFU, Plate 1” value [2]?
A: Its value is 1.1 RFU.

Q: And the “hSSPN-EGFP RFU, Plate 2” value [2]?
A: The value was 1.1 RFU.

Q: Which results are given for CCOC(=O)C1=C(C)NC(C)=C(C(=O)OCC)C1c1ccccc1/C=C/C(=O)OC(C)(C)C [Lacidipine, diethyl 2,6-dimethyl-4-[2-[(E)-3-[(2-methylpropan-2-yl)oxy]-3-oxoprop-1-enyl]phenyl]-1,4-dihydropyridine-3,5-dicarboxylate]?
A: fluorescence intensity over vehicle, primary screen hit call [2]: hits; hSSPN-EGFP RFU, Plate 1 [2]: 1.3 RFU; hSSPN-EGFP RFU, Plate 2 [2]: 1.2 RFU

Q: How did the “hSSPN-Luciferase reporter activity” value [3] turn out when O=c1[nH]c(=O)c2nc3ccccc3nc2[nH]1 [Alloxazine, 1H-benzo[g]pteridine-2,4-dione] was run?
A: The value was “increased activity”.

Q: What about the “hSSPN-EGFP reporter activity” value [1] of the same compound?
A: The value was “increased activity”.

Q: What about the “fluorescence intensity over vehicle” value [2] of the same compound?
A: Its value is “hits”.

Q: What about the “hSSPN-EGFP RFU, Plate 1” value [2] of the same compound?
A: The value was 1.0 RFU.

Q: What about the “hSSPN-EGFP RFU, Plate 2” value [2] of the same compound?
A: The value was 1.1 RFU.
